The values below come from paper PMC3034772 (Pharmaceutical research, 2010).

Data set [1] can be described thus: Charge class Q, dominant calculated charge state at pH 7.4. Type of data set: physicochemical.
A short description of data set [2]: In combo PAMPA-BBB model, calculated log Po in situ.
For data set [3] the following is noted: for Pm^7.4: pH 7.4.
The conditions of data set [4]: mouse, in vivo.
For data set [5] the following is noted: in vivo.
The conditions of data set [6]: mouse, in vivo; cited from earlier work.
For data set [7] the following is noted: cited from earlier work.
Data set [8] is described as follows: physchem.
For data set [9] the following is noted: PAMPA; for Pm^7.4: pH 7.4. Background: The PAMPA barrier holds no transporters, so it reflects passive diffusion.
Data set [10] can be described thus: physchem. This is another data set of the same source.
For data set [11] the following is noted: ref [11]; cited from earlier work.
A short description of data set [12]: In situ brain perfusion, individual literature values. Conditions: efflux inhibition CsA; from literature PS.
Where [13] appears, read: dominant calculated concentration fraction of the drug in a charge state.
[14] abbreviates: difference observed minus calculated, external set, no efflux inhibition.

“And” between values parts separate entries of the source, which are not always exact repeats. Equal values may be shown once. Read-outs that look alike come from different tables or passages of the source.

`CCC12CCN(CC3(O)CC3)C(Cc3ccc(O)cc31)C2(C)C` (stereo not shown) [Bremazocine]: the “Q (charge class)” value in data set [1] is reported as “+”. Moreover, in [2], the “obs–calc (log Po^in situ)” value was 0.4 and 0.2. For the same molecule, the “log Po” value in data set [3] (PAMPA-BBB intrinsic permeability, Type I, collected under 1.5 μL conditions but scaled to the 3 μL level) is on record as −2.87. For the same molecule, the “log PABL” value in data set [3] (aqueous boundary layer permeability, Type I, 1.5 μL conditions) was −3.00. Moreover, the “log Po^in situ (obs)” value in [4] is reported as −2.76; in data set [5] it was −2.96. Further, the figures for the PS in data set [6] and in [7] (in vivo) were 129 10^−4 mLg^−1s^−1 and 81 10^−4 mLg^−1s^−1, respectively. Further, the “log PS” value in [6] is −1.89; in [7] (in vivo), −2.09.
Usually pKa stands for the negative logarithm of the acid dissociation constant. Regarding `O=C1CC2(CCCC2)CC(=O)N1CCCCN1CCN(c2ncccn2)CC1` [Buspirone], the “Q (charge class)” value in data set [1] (setting [13]) is “+”. This molecule also showed a pKa in “physchem [8]” (pKa) of 7.59.
As for `CC(C)[C@H](NC(=O)[C@H](CCC(=O)O)NC(=O)[C@H](Cc1ccccc1)NC(=O)[C@@H](C)NC(=O)[C@@H](N)Cc1ccc(O)cc1)C(=O)N[C@H](C(=O)NCC(N)=O)C(C)C` [Deltorphin II], in data set [3] (PAMPA), the “log Po” value was −6.51 and the “Pm^7.4” value is recorded as <0.01. The “log Po^in situ (obs)” value in [4] is recorded as −6.36. Also, the “log Po^in situ (obs)” value in [5] is −6.56. In [6], the PS is given as 0.4 10^−4 mLg^−1s^−1 and the “log PS” value was −4.36. In [7] (in vivo), the PS is on record as 0.3 10^−4 mLg^−1s^−1 and the “log PS” value is reported as −4.56.
In the case of `CN1C[C@H](C(=O)N[C@]2(C)O[C@@]3(O)[C@@H]4CCCN4C(=O)[C@H](Cc4ccccc4)N3C2=O)C=C2c3cccc4[nH]cc(c34)C[C@H]21` [Ergotamine], in [1], the “Q (charge class)” value is on record as 0. For the same molecule, the “obs–calc (log Po^in situ)” value in data set [2] is recorded as 0.1. In addition, in data set [9], the “log PABL” value was −3.73, the “log Po” value is −2.50, the “log Ppara” value was −6.03 and the “Pm^7.4” value is given as 1823. The molecule further showed a pKa in the data set “physchem [10]” of 9.49. Also, the “log Po^in situ (obs)” value in [5] is given as −3.82. Also, in data set [7] (in vivo), the PS is on record as 87 10^−4 mLg^−1s^−1 and the “log PS” value is −2.06.
Take `CC(C)(C)NC(=O)[C@@H]1CN(Cc2cccnc2)CCN1C[C@@H](O)C[C@@H](Cc1ccccc1)C(=O)N[C@H]1c2ccccc2C[C@H]1O` [Indinavir]: the “Q (charge class)” value in [1] (setting [13]) is given as 0. Also, the “obs–calc (log Po^in situ)” value is recorded as −0.4 in data set [2] (setting [14]) and 0.3 in data set [2] (efflux inhibition mdr1a(−/−)). Also, the “log Po” value in data set [3] (PAMPA) is listed as −5.17. The pKa in [11] is 4.91.
On to `CN(C)C(=O)C(CCN1CCC(O)(c2ccc(Cl)cc2)CC1)(c1ccccc1)c1ccccc1` [Loperamide], for which the “Q (charge class)” value in [1] is recorded as “+”. In data set [9], the “log PABL” value is given as −3.19, the “log Po” value is on record as −2.67, the “log Ppara” value is −12 and the “Pm^7.4” value is on record as 102. In addition, the “log Po^in situ (obs)” value in data set [4] is recorded as −2.52.
With `N[C@@H](Cc1ccc(N(CCCl)CCCl)cc1)C(=O)O` [Melphalan], the “Q (charge class)” value in [1] is reported as “±”. Further, in [2], the “obs–calc (log Po^in situ)” value is 0.0. Moreover, in [9], the “log PABL” value is listed as −4.65, the “log Po” value was −7.51, the “log Ppara” value is listed as −7.71 and the “Pm^7.4” value stood at 0.03. Moreover, in [5], the “log Po^in situ (obs)” value was −5.27. Also, in data set [7] (in vivo), the PS is 5 10^−4 mLg^−1s^−1 and the “log PS” value is −3.28.
Take `CN1CCCCC1CCN1c2ccccc2Sc2ccc([S+](C)[O-])cc21` (stereo not shown) [Mesoridazine]: in data set [1] (setting [13]), the “Q (charge class)” value was “+”. Further, the “obs–calc (log Po^in situ)” value in [2] (setting [14]) is listed as 0.8. Further, in data set [9], the “log PABL” value is −3.26, the “log Po” value is −4.33, the “log Ppara” value was −6.21 and the “Pm^7.4” value came to 14. In the data set “physchem [8]” (pKa), this molecule yielded a pKa of 7.79.
For the molecule `CN(Cc1cnc2nc(N)nc(N)c2n1)c1ccc(C(=O)N[C@@H](CCC(=O)O)C(=O)O)cc1` [Methotrexate], the “Q (charge class)” value in data set [1] (setting [13]) is listed as “±”. Moreover, in data set [3] (PAMPA), the “log PABL” value is given as −4.73 and the “Pm^7.4” value is 0.001. Besides, the pKa in the data set “physchem [8]” (pKa) was determined as 5.55.
As for `Oc1ccc2c3c1O[C@H]1c4[nH]c5ccccc5c4C[C@@]4(O)[C@@H](C2)N(CC2CC2)CC[C@]314` [Naltrindole], in [1], the “Q (charge class)” value is “+”. For the same molecule, in [9], the “log Po” value was −2.23, the “log Ppara” value is listed as −6.20 and the “Pm^7.4” value was 659. Moreover, the “log Po^in situ (obs)” value in data set [4] was −3.03. Besides, in data set [6], the PS is on record as 104 10^−4 mLg^−1s^−1 and the “log PS” value is given as −1.98.
With `COc1cc2nc(N3CCN(C(=O)c4ccco4)CC3)nc(N)c2cc1OC` [Prazosin], in “physchem [8]” (pKa), the pKa was determined as 6.79.
For the molecule `CC(C)c1nc(CN(C)C(=O)N[C@H](C(=O)N[C@@H](Cc2ccccc2)C[C@H](O)[C@H](Cc2ccccc2)NC(=O)OCc2cncs2)C(C)C)cs1` [Ritonavir], the “Q (charge class)” value in data set [1] (setting [13]) is 0. Moreover, in data set [2] (setting [14]), the “obs–calc (log Po^in situ)” value is −0.7 and −0.6. For the same molecule, the “obs–calc (log Po^in situ)” value in data set [2] (efflux inhibition mdr1a(−/−)) was 0.0 and 0.2. Besides, in data set [3] (PAMPA), the “log Po” value was −4.24 and the “Pm^7.4” value came out at 57. The pKa in “physchem [8]” (pKa) stood at 2.42.
Consider `CCCN1C[C@H](C)N([C@H](c2ccc(C(=O)N(CC)CC)cc2)c2cccc(OC)c2)C[C@H]1C` [SNC121], for which the “Q (charge class)” value in data set [1] was “+”. Also, in data set [3] (PAMPA), the “log Po” value is reported as −2.91 and the “Pm^7.4” value is 201. For the same molecule, the “log Po^in situ (obs)” value in data set [4] is listed as −2.96. Further, in data set [6], the PS is 363 10^−4 mLg^−1s^−1 and the “log PS” value is recorded as −1.44.
Regarding `CC(C)(C)c1ccc(C(O)CCCN2CCC(C(O)(c3ccccc3)c3ccccc3)CC2)cc1` (stereo not shown) [Terfenadine], the “Q (charge class)” value in data set [1] (setting [13]) is listed as “+”. The “obs–calc (log Po^in situ)” value in [2] (setting [14]) is recorded as −0.9. For the same molecule, the “obs–calc (log Po^in situ)” value in data set [2] (efflux inhibition CsA) was 0.0. In addition, in [9], the “log PABL” value is recorded as −3.76, the “log Po” value is on record as −0.54 and the “log Ppara” value is given as −5.70. For the same molecule, in data set [7] (efflux inhibition CsA), the “log PS” value is recorded as −1.39. Besides, the “log Po^in situ (obs)” value in data set [12] is listed as −0.92.
For `CC(=O)CC(c1ccccc1)c1c(O)c2ccccc2oc1=O` (stereo not shown) [Warfarin], in data set [1] (setting [13]), the “Q (charge class)” value is “−”. Besides, in data set [2], the “obs–calc (log Po^in situ)” value is 0.4 and 0.5. In data set [9], the “log PABL” value is given as −3.04, the “log Po” value is −3.21, the “log Ppara” value is on record as −8.00 and the “Pm^7.4” value is 1.4. For the same molecule, the pKa in “physchem [8]” was 4.75.
For `Cc1cn([C@H]2C[C@H](N=[N+]=[N-])[C@@H](CO)O2)c(=O)[nH]c1=O` [Zidovudine], the “Q (charge class)” value in data set [1] (setting [13]) is 0. In data set [3] (PAMPA), the “log Po” value was −6.24. In addition, the pKa in “physchem [8]” (pKa) was 9.61.
As to `N[C@H](Cc1ccc(F)cc1)C(=O)O` [p-F-Phenylalanine(D)], the “log Po^in situ (obs)” value in data set [4] is listed as −4.81. Moreover, the “log Po^in situ (obs)” value in data set [5] was −4.84. Also, in data set [7] (in vivo), the PS was 14 10^−4 mLg^−1s^−1 and the “log PS” value is −2.85.
As to `N[C@@H](Cc1ccc(F)cc1)C(=O)O` [p-F-Phenylalanine(L)], the “log Po^in situ (obs)” value in data set [4] is −3.45. In addition, in data set [6], the PS was 347 10^−4 mLg^−1s^−1 and the “log PS” value is given as −1.46.
